In patent US20220016114A1, “Heart Rate Decreasing Agent” (FURUKAWA RESEARCH OFFICE CO., LTD., priority 2018, published 2022):
Entries after “also recorded” stand apart in the source; their conditions may differ.

Tested on: heart rate of a person
Experiment: Variation in heart rate before and after oral ingestion of orotic acid tablets, at rest and after drinking
Assay type: in vivo, human
Conditions: for Symptoms (4 to 5 hours after orotic acid ingestion): placebo: languor
Protocol: Tablets consisting of orotic acid were orally ingested and the variation in heart rate was measured before and after oral ingestion. The test subject was a person. Although they were told at their medical checkup that their cholesterol was slightly high, they had not taken any medication and had no preexisting condition. Their blood pressure was in the normal range, and they had never been diagnosed with a blood pressure problem in the past. Their heart rate was slightly high at about 89 to 92 beats/min, and rarely fell below 86 beats/min even at rest. Since the heart rate quickly increases due to exercise and tension or the like, the measurement day was spent as much as possible doing desk work and the like, and the measurement was made under stable conditions after sitting on a chair for at least several minutes. They were drinking 2 cans of beer and 2 to 3 double glasses of shochu daily. Their heart rate after drinking was increasing to about 105 to 115 beats/min (120 beats/min in rare cases), and they were feeling drunk and mild palpitation. They were also feeling sleepy on some days. The test subject ingested a tablet containing 200 mg of orotic acid by oral administration, and the measurement of their heart rate was started.

O=C(O)c1cc(=O)[nH]c(=O)[nH]1 [Orotic acid, 1,2,3,6-tetrahydro-2,6-dioxo-4-pyrimidinecarboxylic acid]
Overall effect on heart rate and on daily palpitation and fatigue (conclusion from Table 1, person, 200 mg oral): a decrease in heart rate was clearly observed; also recorded: improved the palpitation and fatigue that were felt on a daily basis
Heart rate after stabilisation (later than 4 hours after ingestion) (person, 200 mg oral): in the 70s beats/min to the lower 80s beats/min
Time after ingestion from which heart rate gradually decreased (person, 200 mg oral): about 2 hours
Symptoms (after drinking) (person, 200 mg oral, after usual beer and shochu, placebo: slight drunkenness, mild palpitation, drowsiness): felt almost no drunkenness or palpitation
Heart rate 1 to 2 hours after drinking (person, 200 mg oral, usual amount of beer and shochu after the decrease in heart rate, placebo 105 to 115 beats/min): 85 to 103 beats/min
Symptoms (4 to 5 hours after orotic acid ingestion) (person, 200 mg oral): Clear head; also recorded: No languor
Symptoms (4 to 5 hours after orotic acid ingestion) (person, 200 mg oral, listed as orotic acid): their head was more refreshed and no longer felt lethargic
Heart rate 4 hours after ingestion (person, 200 mg oral, usual heart rate about 89 to 92 beats/min): ≤ 80 beats/min
Heart rate 4 to 5 hours after orotic acid ingestion (person, tablet containing 200 mg orotic acid orally, sitting at rest, placebo 88 to 93 beats/min): 77 to 82 beats/min
